Results on four compounds are retold here after article PMC9925557, “Anti-inflammatory effects of new human histamine H3 receptor ligands with flavonoid structure on BV-2 neuroinflammation” (Inflammation Research, 2022).

Molecules are shown by their SMILES.

Series [1] has as its system neuroblastoma SH-SY5Y cells. As to conditions: 1 µM, 24 h pre-treatment; H2O2 (300 μM) and okadaic acid (50 nM); ref 2nd International Conference on Neuroprotection by Drugs, Nutraceuticals and Physical Activity, 9–10 Dec 2021; cited from earlier work.
In series [2] the target is T1, human histamine H1 receptor (Homo sapiens, UniProt P35367).
T1 construct: expressed in transfected cells; host or cells: CHO-K1
Briefly: [3H]Pyrilamine radioligand binding, CHO-K1 cells stably expressing hH1R. As to conditions: for Selectivity Ki (H1R)/Ki (H3R): hH3R over hH1R. As to the method: (§1) Radioligand binding studies, using CHO-K1 cells stably expressing the H1R or Sf9 cells transiently expressing the H4R were performed as described previously. [^3H]Pyrilamine (H1R) and [^3H]histamine (H4R) were used as radiolignads. Affinities were determined using at least five different concentrations of tested compounds in triplicate independent experiments.

Series [3] has as its target T2, human histamine H4 receptor (Homo sapiens, UniProt Q9H3N8).
T2 construct: expressed in transfected cells; host or cells: Sf9
The experiment in a line: [3H]Histamine radioligand binding, Sf9 cells transiently expressing hH4R. The conditions noted are these: for Selectivity Ki (H4R)/Ki (H3R): hH3R over hH4R. Here is the method:
as §1

The test system of another series is electric eel AChE. Set-up: method as in PMID 31669851. As to conditions: cited from earlier work.
The test system of another series is human AChE. Set-up: method as in PMID 31669851. The conditions noted are these: cited from earlier work.
The test system of series [4] is BV-2 cells. Briefly: MTS cell viability assay. Format: cell-based, murine. The conditions noted are these: Mus musculus, 24 h exposure, mean ± SD, read-out: IC50 (inhibition of cell viability). Here is the method: The murine microglial BV-2 cell line was purchased from the Interlab Cell Line Collection (ICLC) cell bank (Genova, Italy). The BV-2 cells were cultured in DMEM/F12 medium (Lonza, BioWhittaker, Walkersville, MD USA, 12-719F) containing 10% of heat-inactivated fetal bovine serum (FBS, Gibco, 10,500–064) in a humidified incubator containing 95% air and 5% CO2 at 37 °C. BV-2 cells were used for experiments at passages 3 to 11. In all experiments, the concentration of FBS was reduced to 5%.
BV-2 cells (2 × 10^4 cells/100 μl/well) were cultured in transparent 96-well plates (TPP, Trasadingen, Switzerland) in DMEM/F12 supplemented with 5% FBS in the presence of dimethylsulfoxide (DMSO ≤ 0.1%, vehicle control, Veh) or increasing doses of tested compounds (0.78 × 10^–6 – 50 × 10^–6 M). Compound treatment was performed for 24 h. After the incubation time, cell viability was examined using an MTS-based [3-(4,5-dimethylthiazol-2-yl)-5-(3-carboxymethoxyphenyl)-2-(4-sulfophenyl)-2 H tetrazolium] CellTiter96® AQueous One Solution Cell Proliferation Assay (Promega, Madison, USA) following the manufacturer’s protocol. Briefly, 20 μl of MTS solution was pipetted into each well containing 100 μl of culture or culture medium without cells (blank control), mixed well and incubated at 37 °C for 55 min. After the appropriate time, the absorbance was measured at 490 nm using the EnSpire microplate reader (PerkinElmer, Massachusetts, USA). IC50 values were calculated with non-linear regression fit to a sigmoidal dose–response curve (log of compound concentration versus normalized response) using GraphPad Prism (v. 4.0.3).
(§2) To establish an experimental model of neuroinflammation in vitro, BV-2 cells were cultured in a 96-well plate (2 × 10^4 cells/200 μl/per well) and a 24-well plate (15 × 10^4 cells/500 μl/well) for the MTS assay and the Griess assay or the RT-qPCR experiment, respectively. BV-2 cells were treated for 24 h, 45 h and 69 h with the increasing concentration of LPS (Sigma-Aldrich, Saint Louis, MO, USA, L4391): 0.001; 0.01; 0.1; 1 [μg/ml]. Following LPS stimulation, at each time point, 100 μl of culture medium from each sample was transferred to another plate and mixed with an equal volume of Griess reagent. Simultaneously, on the plate with cells, cell viability was assessed by adding 20 μl of MTS reagent. The cells cultured on a 24-well plate were used for assessing the expression levels of proinflammatory cytokines (IL-1β, IL-6, TNF-α) by RT-qPCR.
To avoid the toxic effect of H3R ligands in subsequent studies, an MTS assay was performed to investigate cell viability. BV-2 cells were cultured for 24 h in the presence of an increasing concentration of compounds E243 and IIIa–IIIc (twofold dilutions covered the range from 0.78 × 10^–6 to 50 × 10^–6 M). […]
(Tetrazolium dyes change colour on reduction, which living cells bring about.)

In series [5] the test system is BV-2 cells. Briefly: Griess assay (NO/nitrite level) in LPS-treated BV-2 cells. It counts as cell-based, murine. As to conditions: 6.25 μM, 1 h pretreatment, then 1 μg/ml LPS for 24 h. As to the method:
The Griess assay is a colorimetric assay to measure the levels of nitrite (NO2^−) which is one of the primary and stable metabolites of NO. Griess reagent (Sigma-Aldrich, Saint Louis, MO, USA, G4410) was freshly prepared according to the manufacturer's instructions, that is, 1 g was dissolved in ultrapure water and mixed by inversion for about 4 min. For measuring nitric oxide, after an appropriate incubation time, 100 μl of culture medium was transferred to a transparent 96-well plate and mixed with the same volume of Griess reagent. The plate was incubated for 15 min at room temperature and the absorbance was read at 540 nm using the EnSpire microplate reader (PerkinElmer, Massachusetts, USA). Data were analysed by direct comparison based on the average absorbance of LPS treatment, compound treatment or co-treatment with LPS, performed by normalizing treated cells (compound alone or co-treatment with LPS) to LPS-treated cells set as 100%.
as §2
Fig. 6 The effect of the compounds tested (E243 and IIIa–IIIc) on nitric oxide (NO) production in BV-2 cells assessed by the Griess assay. BV-2 cells were pretreated for 1 h with indicated compounds at the concentration of 6.25 μM, followed by stimulation with 1 μg/ml LPS for 24 h. Data are expressed as mean ± SEM of two independent experiments, each of which consisted of eight replicates per treatment group and is expressed as a percentage of NO production versus cells treated with LPS (set at 100%). […] Data indicated with ***p < 0.001 (versus vehicle-treated cells) reflect statistically significant differences between the control and experimental groups

The test system of the next series is equine BuChE. Set-up: method as in PMID 31669851. The conditions noted are these: cited from earlier work.
The test system of series [6] is BV-2 cells. Briefly: ELISA of pro-inflammatory cytokines released by LPS-activated BV-2 cells. It counts as cell-based, murine. As to conditions: for Inhibitory activity on pro-inflammatory cytokine production: LPS-stimulated BV-2 cells, data not shown. Here is the method: The concentrations of IL-1β, IL-6, TNF-α, the main inflammatory cytokines, were analysed using commercial ELISA kits (IL-6 ELISA kit, ADI-900–045, TNF-α ELISA kit, ADI-900–047, Enzo, Mouse IL-1 beta ELISA kit, Invitrogen) according to the manufacturer’s instructions. Briefly, at the end of 24 h of incubation with tested compounds, cell culture plates were centrifuged to remove cell debris from the supernatants. Culture medium was collected in Eppendorf tubes and frozen at −80 °C until further analysis.
Fig. 8 Effect of compound IIIc on the production of proinflammatory cytokines by LPS-activated BV-2 cells.
A general note: ELISA stands for enzyme-linked immunosorbent assay.

The subject of series [7] is BV-2 cells. Briefly: RT-qPCR of pro-inflammatory cytokine mRNA in LPS-activated BV-2 cells. As to conditions: 6.25 μM, 1 h pretreatment, LPS 1 μg/ml 24 h; on average.
Another series concerns the target T3, human H3 receptor (Homo sapiens, UniProt Q9Y5N1).
T3 construct: expressed in transfected cells; host or cells: CHO-K1
Briefly: [3H]Nα-methylhistamine radioligand binding, CHO-K1 cells stably expressing hH3R. As to the method: Radioligand binding studies were conducted using CHO-K1 cells stably transfected with the human H3 receptor as we described previously. All assays were carried out in duplicates. [^3H]-N-α-methylhistamine was used as radioligand and (R)(-)-α-methylhistamine was used to define nonspecific binding. Radioactivity was counted in MicroBeta2 scintillation counter (PerkinElmer). Data were fitted to a one-site curve-fitting equation with Prism 6 (GraphPad Software) and Ki values were estimated from the Cheng − Prusoff equation.
Compounds IIIa–IIIc were tested for affinity for human H3R (hH3R) in a radioligand binding assay with N^α-methylhistamine as a radioligand in CHO K1 cells stably expressing hH3R. Results are presented as Ki values with SEM (Table 2). […] However, it is still a very active compound. The affinity for hH3R (stably expressed in HEK293 cells) of compound E243 was recently described.

Where [8] appears, read: 6.25 μM, 1 h pretreatment, LPS 1 μg/ml 24 h.

T2 sequence (Q9H3N8 whole entry): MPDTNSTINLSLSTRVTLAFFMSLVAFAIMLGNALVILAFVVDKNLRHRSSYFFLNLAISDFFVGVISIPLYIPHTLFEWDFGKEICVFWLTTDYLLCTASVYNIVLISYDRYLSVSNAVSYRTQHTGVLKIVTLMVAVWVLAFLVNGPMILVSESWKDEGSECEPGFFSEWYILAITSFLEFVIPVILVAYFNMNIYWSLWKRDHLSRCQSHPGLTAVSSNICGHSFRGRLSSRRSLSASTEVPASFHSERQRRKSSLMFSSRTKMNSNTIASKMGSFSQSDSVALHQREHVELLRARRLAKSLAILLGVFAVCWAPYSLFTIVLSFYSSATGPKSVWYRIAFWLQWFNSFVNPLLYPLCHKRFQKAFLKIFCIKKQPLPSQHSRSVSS
T1 sequence (P35367 whole entry): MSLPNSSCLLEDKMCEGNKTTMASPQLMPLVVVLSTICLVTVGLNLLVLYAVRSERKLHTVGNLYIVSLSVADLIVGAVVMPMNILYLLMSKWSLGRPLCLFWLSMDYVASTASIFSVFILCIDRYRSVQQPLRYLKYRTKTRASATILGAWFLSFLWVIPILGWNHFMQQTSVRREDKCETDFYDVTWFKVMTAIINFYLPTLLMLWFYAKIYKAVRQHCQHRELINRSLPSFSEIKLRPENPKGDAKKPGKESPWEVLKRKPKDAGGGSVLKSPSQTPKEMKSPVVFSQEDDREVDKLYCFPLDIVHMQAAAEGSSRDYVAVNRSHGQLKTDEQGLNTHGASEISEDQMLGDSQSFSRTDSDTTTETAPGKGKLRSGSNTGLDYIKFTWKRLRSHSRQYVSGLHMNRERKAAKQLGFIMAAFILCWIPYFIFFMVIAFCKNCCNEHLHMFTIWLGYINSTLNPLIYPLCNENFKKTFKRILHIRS
T3 sequence (Q9Y5N1 whole entry): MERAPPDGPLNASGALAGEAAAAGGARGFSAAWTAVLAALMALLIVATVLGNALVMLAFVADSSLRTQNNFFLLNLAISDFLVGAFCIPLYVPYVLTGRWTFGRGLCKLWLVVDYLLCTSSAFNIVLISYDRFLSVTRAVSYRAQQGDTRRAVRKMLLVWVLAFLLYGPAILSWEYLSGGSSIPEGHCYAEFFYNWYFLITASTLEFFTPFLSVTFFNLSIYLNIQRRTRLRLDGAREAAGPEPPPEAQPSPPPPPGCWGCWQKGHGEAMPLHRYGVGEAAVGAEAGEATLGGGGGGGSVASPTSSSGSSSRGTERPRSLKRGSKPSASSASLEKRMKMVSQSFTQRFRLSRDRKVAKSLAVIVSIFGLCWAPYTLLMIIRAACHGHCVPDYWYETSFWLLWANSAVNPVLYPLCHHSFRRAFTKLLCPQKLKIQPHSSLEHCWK

For the compound `Cc1ccc2oc(-c3ccc(OCCCCCCN4CCCCC4)cc3)cc(=O)c2c1` [Compound E243], the “Prevention of ROS production, times compared to neurotoxin-treated cells” value in series [1] is recorded as around 2 times. Besides, the Ki in series [2] came to 1310 ± 128 nM; in series [3] it was 4440 nM. The “Selectivity Ki (H1R)/Ki (H3R)” value in series [2] is listed as above 5. Further, in series [3], the “Selectivity Ki (H4R)/Ki (H3R)” value is above 19. Besides, the IC50 in the series with electric eel AChE is 501 nM; in the series on human AChE, 360 nM; with BV-2 cells [4], 53500 ± 5560 nM; in the series with equine BuChE it was 758 nM. Further, the “Reduction of NO level compared to LPS treated cells” value (from here on “Reduction of NO level”) with BV-2 cells [5] was around 30%.
For the compound `COc1cc(/C=C/C(=O)c2ccc(OCCCN3CCCCC3)cc2)cc(OC)c1OC.Cl` [IIIc, (E)-3-(3,4,5-Trimethoxyphenyl)-1-(4-(3-(piperidin-1-yl)propoxy)phenyl)prop-2-en-1-one hydrogen chloride], in [2], the Ki was 2700 nM and the “Selectivity Ki (H1R)/Ki (H3R)” value was above 112. In [3], the Ki was 2820 nM and the “Selectivity Ki (H4R)/Ki (H3R)” value is on record as above 117. Also, in the series with BV-2 cells [6] (setting [8]), the “Release of IL-1β compared to LPS-stimulated BV-2 cells” value is given as “significantly lower”, the “Release of IL-6 compared to LPS-stimulated BV-2 cells” value was “significantly lower” and the “Release of TNF-α compared to LPS-stimulated BV-2 cells” value is “significantly lower”. Besides, the concentration for half-maximal inhibition (IC50) with BV-2 cells [4] amounted to 11300 ± 3260 nM. Also, in the series on BV-2 cells [5], the “Reduction of NO level” value is 61%. Besides, in the series with BV-2 cells [7], the “IL-1β mRNA level, times lower than induced by LPS alone” value is given as around 2 times and the “TNF-α mRNA level, times lower than induced by LPS alone” value is given as around 3 times. On human H3 receptor, this compound registered a Ki of 24 ± 1.1 nM.
`COc1ccc(/C=C/C(=O)c2ccc(OCCCN3CCCCC3)cc2)cc1OC.Cl` [IIIb, (E)-3-(3,4-Dimethoxyphenyl)-1-(4-(3-(piperidin-1-yl)propoxy)phenyl)prop-2-en-1-one hydrogen chloride]: the melting point is 173 to 176 °C. Further, in series [2], the Ki came to 1080 nM and the “Selectivity Ki (H1R)/Ki (H3R)” value is recorded as above 112. In [3], the affinity corresponds to a Ki of 12500 nM and the “Selectivity Ki (H4R)/Ki (H3R)” value is above 1300. For the same compound, the “Inhibitory activity on pro-inflammatory cytokine production” value with BV-2 cells [6] is “have not shown inhibitory activity”. In addition, the IC50 with BV-2 cells [4] was determined as 26700 ± 3480 nM. Besides, the “Reduction of NO level” value in the series on BV-2 cells [5] is on record as around 30%. At human H3 receptor, this compound came in with an inhibitory constant (Ki) of 9.6 ± 0.2 nM.
`COc1ccc(/C=C/C(=O)c2ccc(OCCCN3CCCCC3)cc2)cc1.Cl` [IIIa, (E)-3-(4-Methoxyphenyl)-1-(4-(3-(piperidin-1-yl)propoxy)phenyl)prop-2-en-1-one hydrogen chloride] returned a melting point of 174 to 177 °C. Besides, in the series with BV-2 cells [6], the “Inhibitory activity on pro-inflammatory cytokine production” value is on record as “have not shown inhibitory activity”. Also, the 50% inhibitory concentration (IC50) in the series with BV-2 cells [4] came out at 21200 ± 1980 nM. In addition, in the series with BV-2 cells [5], the “Reduction of NO level” value is around 30%. In addition, on human H3 receptor, the inhibition constant (Ki) was found to be 14 ± 0.2 nM.

As a reminder, the Ki is the dissociation constant of the complex between target and ligand, obtained from inhibition or displacement. Lower therefore signals higher affinity. The term IC50 denotes the midpoint of a concentration-inhibition curve. A word on the melting point: it is the temperature of the solid-liquid transition.
